From US8445501B2, “Substituted 7-carboxamido-pyrrolo[3,2-d]pyrimidines” (Takeda GmbH, priority 2008, dated 2013)

molecular target: T1, human PDE5 (Homo sapiens, UniProt O76074); experiment: Inhibition of the type 5 phosphodiesterase (PDE5) activity, modified SPA test with platelet lysate; format: biochemical; settings: PDE5 from human platelet lysate, 0.5 μM cGMP
T1 construct: from tissue; host or cells: platelets from fresh blood of human donors (lysate, 10,000 g supernatant)
In short: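 SPA-based cGMP hydrolysis, [3H]cGMP tracer in 0.5 μM cGMP, by sonicated human platelet lysate; motapizone (1 μM) and a PDE2 inhibitor (10 nM) block other PDEs. Reaction 15 min at 37 °C after 5 min preincubation, quenched with beads containing IBMX. IC50 from concentration-effect curves.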

IC50 | Compound
1.78 nM | COCC(=O)N[C@H]1CC[C@@H](NC(=O)c2c[nH]c3c(-c4cc(OC)ccc4OCC4CC4)ncnc23)CC1 [Example 69, cis-4-(2-Cyclopropylmethoxy-5-methoxy-phenyl)-5H-pyrrolo[3,2-d]pyrimidine-7-carboxylic acid [4-(2-methoxy-acetylamino)-cyclohexyl]-amide]
1.07 nM | CCOC(=O)N[C@H]1CC[C@@H](NC(=O)c2c[nH]c3c(-c4cc(OC)ccc4OCC4CC4)ncnc23)CC1 [Example 70, cis-(4-{[4-(2-Cyclopropylmethoxy-5-methoxy-phenyl)-5H-pyrrolo[3,2-d]pyrimidine-7-carbonyl]-amino}-cyclohexyl)-carbamic acid ethyl ester]
1.35 nM | COc1ccc(OCC2CC2)c(-c2ncnc3c(C(=O)NC4CCN(C(C)=O)CC4)c[nH]c23)c1 [Example 71, 4-(2-Cyclopropylmethoxy-5-methoxy-phenyl)-5H-pyrrolo[3,2-d]pyrimidine-7-carboxylic acid (1-acetyl-piperidin-4-yl)-amide]
0.437 nM | COc1ccc(OCC2CC2)c(-c2ncnc3c(C(=O)NC4CCN(C(=O)C5CC5)CC4)c[nH]c23)c1 [Example 72, 4-(2-Cyclopropylmethoxy-5-methoxy-phenyl)-5H-pyrrolo[3,2-d]pyrimidine-7-carboxylic acid (1-cyclopropanecarbonyl-piperidin-4-yl)-amide]
1.86 nM | COCC(=O)N1CCC(NC(=O)c2c[nH]c3c(-c4cc(OC)ccc4OCC4CC4)ncnc23)CC1 [Example 73, 4-(2-Cyclopropylmethoxy-5-methoxy-phenyl)-5H-pyrrolo[3,2-d]pyrimidine-7-carboxylic acid [1-(2-methoxy-acetyl)piperidin-4-yl]-amide]
0.55 nM | CCOC(=O)N1CCC(NC(=O)c2c[nH]c3c(-c4cc(OC)ccc4OCC4CC4)ncnc23)CC1 [Example 74, 4-{[4-(2-Cyclopropylmethoxy-5-methoxy-phenyl)-5H-pyrrolo[3,2-d]pyrimidine-7-carbonyl]-amino}-piperidine-1-carboxylic acid ethyl ester]
1.58 nM | CC(=O)N[C@H]1CC[C@@H](NC(=O)c2c[nH]c3c(-c4ccc(F)cc4OCC4CC4)ncnc23)CC1 [Example 75, cis-4-(2-Cyclopropylmethoxy-4-fluoro-phenyl)-5H-pyrrolo[3,2-d]pyrimidine-7-carboxylic acid (4-acetylamino-cyclohexyl)-amide]
2.4 nM | COCC(=O)N[C@H]1CC[C@@H](NC(=O)c2c[nH]c3c(-c4ccc(F)cc4OCC4CC4)ncnc23)CC1 [Example 76, cis-4-(2-Cyclopropylmethoxy-4-fluoro-phenyl)-5H-pyrrolo[3,2-d]pyrimidine-7-carboxylic acid [4-(2-methoxy-acetylamino)-cyclohexyl]-amide]
2.14 nM | CCOC(=O)N[C@H]1CC[C@@H](NC(=O)c2c[nH]c3c(-c4ccc(F)cc4OCC4CC4)ncnc23)CC1 [Example 77, cis-(4-{[4-(2-Cyclopropylmethoxy-4-fluoro-phenyl)-5H-pyrrolo[3,2-d]pyrimidine-7-carbonyl]-amino}-cyclohexyl)-carbamic acid ethyl ester]
2.29 nM | CC(=O)N[C@H]1CC[C@H](NC(=O)c2c[nH]c3c(-c4ccc(F)cc4OCC4CC4)ncnc23)CC1 [Example 78, trans-4-(2-Cyclopropylmethoxy-4-fluoro-phenyl)-5H-pyrrolo[3,2-d]pyrimidine-7-carboxylic acid (4-acetylamino-cyclohexyl)-amide]
1.55 nM | COCC(=O)N[C@H]1CC[C@H](NC(=O)c2c[nH]c3c(-c4ccc(F)cc4OCC4CC4)ncnc23)CC1 [Example 79, trans-4-(2-Cyclopropylmethoxy-4-fluoro-phenyl)-5H-pyrrolo[3,2-d]pyrimidine-7-carboxylic acid [4-(2-methoxy-acetylamino)-cyclohexyl]-amide]
1.41 nM | CCOC(=O)N[C@H]1CC[C@H](NC(=O)c2c[nH]c3c(-c4ccc(F)cc4OCC4CC4)ncnc23)CC1 [Example 80, trans-(4-{[4-(2-Cyclopropylmethoxy-4-fluoro-phenyl)-5H-pyrrolo[3,2-d]pyrimidine-7-carbonyl]-amino}-cyclohexyl)-carbamic acid ethyl ester]
1.48 nM | CC(=O)N1CCC(NC(=O)c2c[nH]c3c(-c4ccc(F)cc4OCC4CC4)ncnc23)CC1 [Example 81, 4-(2-Cyclopropylmethoxy-4-fluoro-phenyl)-5H-pyrrolo[3,2-d]pyrimidine-7-carboxylic acid (1-acetyl-piperidin-4-yl)-amide]
1.1 nM | CCC(=O)N1CCC(NC(=O)c2c[nH]c3c(-c4ccc(F)cc4OCC4CC4)ncnc23)CC1 [Example 82, 4-(2-Cyclopropylmethoxy-4-fluoro-phenyl)-5H-pyrrolo[3,2-d]pyrimidine-7-carboxylic acid (1-propionyl-piperidin-4-yl)-amide]
5.13 nM | COCC(=O)N1CCC(NC(=O)c2c[nH]c3c(-c4ccc(F)cc4OCC4CC4)ncnc23)CC1 [Example 83, 4-(2-Cyclopropylmethoxy-4-fluoro-phenyl)-5H-pyrrolo[3,2-d]pyrimidine-7-carboxylic acid [1-(2-methoxy-acetyl)piperidin-4-yl]-amide]
2.95 nM | CC(=O)N1CCC(NC(=O)c2c[nH]c3c(-c4cc(F)ccc4OCC4CC4)ncnc23)CC1 [Example 84, 4-(2-Cyclopropylmethoxy-5-fluoro-phenyl)-5H-pyrrolo[3,2-d]pyrimidine-7-carboxylic acid (1-acetyl-piperidin-4-yl)-amide]
1.58 nM | CCC(=O)N1CCC(NC(=O)c2c[nH]c3c(-c4cc(F)ccc4OCC4CC4)ncnc23)CC1 [Example 85, 4-(2-Cyclopropylmethoxy-5-fluoro-phenyl)-5H-pyrrolo[3,2-d]pyrimidine-7-carboxylic acid (1-propionyl-piperidin-4-yl)-amide]
3.98 nM | COCC(=O)N1CCC(NC(=O)c2c[nH]c3c(-c4cc(F)ccc4OCC4CC4)ncnc23)CC1 [Example 86, 4-(2-Cyclopropylmethoxy-5-fluoro-phenyl)-5H-pyrrolo[3,2-d]pyrimidine-7-carboxylic acid [1-(2-methoxy-acetyl)piperidin-4-yl]-amide]
1.12 nM | CC(=O)N[C@H]1CC[C@H](NC(=O)c2c[nH]c3c(-c4cc(F)ccc4OCC4CC4)ncnc23)CC1 [Example 87, trans-4-(2-Cyclopropylmethoxy-5-fluoro-phenyl)-5H-pyrrolo[3,2-d]pyrimidine-7-carboxylic acid (4-acetylamino-cyclohexyl)-amide]
1.66 nM | CCC(=O)N[C@H]1CC[C@H](NC(=O)c2c[nH]c3c(-c4cc(F)ccc4OCC4CC4)ncnc23)CC1 [Example 88, trans-4-(2-Cyclopropylmethoxy-5-fluoro-phenyl)-5H-pyrrolo[3,2-d]pyrimidine-7-carboxylic acid (4-propionylamino-cyclohexyl)-amide]
1.29 nM | COCC(=O)N[C@H]1CC[C@H](NC(=O)c2c[nH]c3c(-c4cc(F)ccc4OCC4CC4)ncnc23)CC1 [Example 89, trans-4-(2-Cyclopropylmethoxy-5-fluoro-phenyl)-5H-pyrrolo[3,2-d]pyrimidine-7-carboxylic acid [4-(2-methoxy-acetylamino)-cyclohexyl]-amide]
5.62 nM | CC(=O)N[C@H]1CC[C@H](NC(=O)c2c[nH]c3c(-c4ccccc4OCC4CC4)ncnc23)CC1 [Example 90, trans-4-(2-Cyclopropylmethoxy-phenyl)-5H-pyrrolo[3,2-d]pyrimidine-7-carboxylic acid (4-acetylamino-cyclohexyl)-amide]
6.31 nM | COCC(=O)N[C@H]1CC[C@H](NC(=O)c2c[nH]c3c(-c4ccccc4OCC4CC4)ncnc23)CC1 [Example 91, trans-4-(2-Cyclopropylmethoxy-phenyl)-5H-pyrrolo[3,2-d]pyrimidine-7-carboxylic acid [4-(2-methoxy-acetylamino)-cyclohexyl]-amide]
3.39 nM | CCOC(=O)N[C@H]1CC[C@H](NC(=O)c2c[nH]c3c(-c4ccccc4OCC4CC4)ncnc23)CC1 [Example 92, trans-(4-{[4-(2-Cyclopropylmethoxy-phenyl)-5H-pyrrolo[3,2-d]pyrimidine-7-carbonyl]-amino}-cyclohexyl)-carbamic acid ethyl ester]
2.51 nM | O=C(N[C@H]1CC[C@H](NC(=O)C2CC2)CC1)c1c[nH]c2c(-c3ccccc3OCC3CC3)ncnc12 [Example 93, trans-4-(2-Cyclopropylmethoxy-phenyl)-5H-pyrrolo[3,2-d]pyrimidine-7-carboxylic acid [4-(cyclopropanecarbonyl-amino)cyclohexyl]-amide]
8.71 nM | CC(=O)N1CCC(NC(=O)c2c[nH]c3c(-c4ccccc4OCC4CC4)ncnc23)CC1 [Example 94, 4-(2-Cyclopropylmethoxy-phenyl)-5H-pyrrolo[3,2-d]pyrimidine-7-carboxylic acid (1-acetyl-piperidin-4-yl)-amide]
3.31 nM | CCOC(=O)N1CCC(NC(=O)c2c[nH]c3c(-c4ccccc4OCC4CC4)ncnc23)CC1 [Example 95, 4-{[4-(2-Cyclopropylmethoxy-phenyl)-5H-pyrrolo[3,2-d]pyrimidine-7-carbonyl]-amino}-piperidine-1-carboxylic acid ethyl ester]
2.14 nM | O=C(NC1CCN(C(=O)C2CC2)CC1)c1c[nH]c2c(-c3ccccc3OCC3CC3)ncnc12 [Example 96, 4-(2-Cyclopropylmethoxy-phenyl)-5H-pyrrolo[3,2-d]pyrimidine-7-carboxylic acid (1-cyclopropanecarbonyl-piperidin-4-yl)-amide]
0.117 nM | CCC(=O)N1CCC(NC(=O)c2c[nH]c3c(-c4cc(OC)c(F)cc4OCC4CC4)ncnc23)CC1 [Example 97, 4-(2-Cyclopropylmethoxy-4-fluoro-5-methoxy-phenyl)-5H-pyrrolo[3,2-d]pyrimidine-7-carboxylic acid (1-propionyl-piperidin-4-yl)-amide]
